# According to US20260374818A1, “CATIONIC PEPTIDES WITH BROAD SPECTRUM ACTIVITY” (priority 2023, published 2026):
# Where a SMILES comes first, the peptide text is derived from it. [ ]: non-standard residue; d: D form.
# Experiments:
# [1] = Peptide aggregation in RPMI + 10% FBS with PBMCs (microscopy); type: physicochemical; conditions: 50 μg/ml, overnight
# Procedure, shortened: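 Peptides added to human PBMCs in RPMI with 10% FBS, incubated overnight at 37 °C, 5% CO2; aggregation assessed qualitatively by inverted light microscopy at 10× magnification.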
# P. aeruginosa LESB58 = assay: Murine sinusitis model, P. aeruginosa; type: in vivo, mouse; Pseudomonas aeruginosa
# Text: FIGS. 15A-15I show peptides AB101-D, AB102-D and AB103-D compared to DJK5 in a murine sinusitis model of bacterial infections. MRSA USA300, nasal cavity (FIG. 15A) P. aeruginosa LESB58 (FIG. 15B and FIG. 15C, nasal cavity); MRSA USA300, lung tissue (FIG. 15D) P. aeruginosa LESB58 (FIG. 15E and FIG. 15F, lung tissue); and MRSA USA300, weight change (FIG. 15G) P. aeruginosa LESB58 (FIG. 15H and FIG. 15I, weight change).
# A murine sinusitis model of bacterial infections in the nasal cavity of mice [Alford et al. (2021). Murine model of sinusitis infection for screening antimicrobial and immunomodulatory therapies. Frontiers in Cellular and Infection Microbiology., 11, 621081] was used to determine the efficacy of D-amino acid peptides AB101-D, AB102-D and AB103-D compared to DJK5. […]. Treatment was applied either as dropwise administration of a peptide solution (20 μl) to the infected naris of a mouse (FIGS. 15A, 15B, 15D, 15E, 15G, 15H) or peptide was delivered using a Respimat® inhaler device (FIGS. 15C, 15F, 15I). Mice were monitored and weighed once daily for up to three days then euthanized prior to collection of nasal lavage fluid and lung tissue for bacterial enumeration. The limit of detection is shown by the dotted line at log CFU=2. […] Accordingly, the results indicated enhanced efficacy of D-amino acid peptides AB101-D, AB102-D and AB103-D compared to DJK5 in this murine model.
# [2] = system: Staphylococcus haemolyticus; assay: MIC (broth microdilution) of peptides, S. haemolyticus; type: cell-based; conditions: mode of three biological replicates
# Experimental: (§1) Minimal inhibitory concentration (MIC) against planktonic bacteria: The MIC of the synthetic peptides was determined in Mueller-Hinton broth (MHB) using the broth microdilution method described previously [Wiegand, I., Hilpert, K., & Hancock, R. E. (2008). Agar and broth dilution methods to determine the minimal inhibitory concentration (MIC) of antimicrobial substances. Nature Protocols, 3(2), 163-175]. Briefly, 10 μl of a 10× concentrated peptide solution was placed in the bottom of a well in a 96-well polypropylene round bottom plate (Corning Inc.). A bacterial suspension of ~5×10^5 CFU/ml was prepared from an overnight culture and 90 μl of this was added to each well. […] Bacteria tested included P. aeruginosa PAO1, MRSA USA300 LAC, Staphylococcus haemolyticus, Staphylococcus epidermidis, Klebsiella pneumoniae and Streptococcus salivarius.
# (§2) Finally, the AB103-D derivatives that were the least aggregation prone and which produced the lowest toxic effects in vivo were evaluated for their direct antibacterial activity towards several pathogens of clinical relevance using a standard minimum inhibitory concentration (MIC) assay [Wiegand, I., Hilpert, K., & Hancock, R. E. (2008). Agar and broth dilution methods to determine the minimal inhibitory concentration (MIC) of antimicrobial substances. Nature Protocols, 3(2), 163-175]. Specifically, peptides AB110-D, AB111-D, AB114-D and AB115-D were tested against P. aeruginosa PAO1, MRSA USA 300, Staphylococcus haemolyticus, Staphylococcus epidermidis, Klebsiella pneumoniae and Streptococcus salivarius and compared against the antibacterial activity of DJK-5 and AB103-D (Table 7). Overall, the antibacterial potency of all of the AB103-D derivatives was stronger than that seen for DJK-5, particularly in the case of the Gram-negative pathogens P. aeruginosa and K. pneumoniae. […]
# [3] = system: Acinetobacter baumannii Ab5075; assay: Biofilm inhibition (at least 80%), A. baumannii; type: cell-based; conditions: n = 4, BM2 minimal media, 18-24 hours, crystal violet
# P. aeruginosa PAO1 = assay: MIC (broth microdilution) of peptides, P. aeruginosa; type: cell-based, Pseudomonas aeruginosa; conditions: mode of three biological replicates
# Experimental: as §1, §2
# MRSA USA 300 = assay: MIC (broth microdilution) of peptides, MRSA; type: cell-based, methicillin resistant Staphylococcus aureus; conditions: MRSA USA300; mode of three biological replicates
# Experimental: as §1, §2
# Streptococcus salivarius = assay: MIC (broth microdilution) of peptides, S. salivarius; type: cell-based; conditions: mode of three biological replicates
# Experimental: as §1, §2
# Klebsiella pneumoniae = assay: MIC (broth microdilution) of peptides, K. pneumoniae; type: cell-based; conditions: mode of three biological replicates
# Experimental: as §1, §2
# [4] = system: P. aeruginosa PAO1 biofilms; conditions: for minimum inhibitory concentration of peptide that inhibited at least 90% of biofilm growth (MBIC90): P. aeruginosa PAO1 biofilms, >95% pure peptides, BM2 minimal media; for minimum inhibitory concentration of peptide that inhibited at least 90% of biofilm growth (MBIC90) / IC50: crystal violet; for IC50: read-out: Biofilm Inhibition IC50, PAO1, 24 hours
# [5] = system: Staphylococcus epidermidis; assay: MIC (broth microdilution) of peptides, S. epidermidis; type: cell-based; conditions: mode of three biological replicates
# Experimental: as §1, §2
SMILES,Peptide aggregation [1],"Bacteria in nasal cavity and lungs (P. aeruginosa LESB58; P. aeruginosa LESB58, 0.1 mg dose, compared to DJK5)",MIC [2] [µg/mL],Peptide/Antibiotic Concentration where at least 80% of biofilm growth was inhibited [3] [µg/mL],MIC (P. aeruginosa PAO1) [µg/mL],MIC (MRSA USA 300) [µg/mL],MIC (Streptococcus salivarius) [µg/mL],MIC (Klebsiella pneumoniae) [µg/mL],Biofilm inhibition activity compared to DJK5 ([4]; P. aeruginosa) [fold],minimum inhibitory concentration of peptide that inhibited at least 90% of biofilm growth (MBIC90) [4] [µM],IC50 [4] [µM],MIC [5] [µg/mL],Weight loss (P. aeruginosa LESB58; P. aeruginosa LESB58 infected mice)
"CC[C@@H](C)[C@@H](NC(=O)[C@@H](C)NC(=O)[C@@H](CCCNC(=N)N)NC(=O)[C@@H](Cc1c[nH]c2ccccc12)NC(=O)[C@@H](CCC(N)=O)NC(=O)[C@H](NC(=O)[C@@H](CCCNC(=N)N)NC(=O)[C@H](NC(=O)[C@H](NC(=O)[C@@H](CCCNC(=N)N)NC(=O)[C@H](NC(=O)[C@H](N)CCCNC(=N)N)C(C)C)C(C)C)[C@H](C)CC)C(C)C)C(N)=O [AB103-D, rvrvirvqwrai-NH2] (H-[dR][dV][dR][dV][dI][dR][dV][dQ][dW][dR][dA][dI]-NH2)",some small aggregates,reduced the amount of bacteria in the nasal cavity and lungs of mice much more than DJK5 treatment,0.8,1,2,0.8,0.8,0.8,≥ 4,8,1.9,0.8,–
"CC[C@@H](C)[C@@H](NC(=O)[C@@H](C)NC(=O)[C@@H](CCCNC(=N)N)NC(=O)[C@@H](Cc1c[nH]c2ccccc12)NC(=O)[C@@H](CCC(N)=O)NC(=O)[C@H](N)C(C)C)C(=O)N[C@H](CCCNC(=N)N)C(=O)N[C@@H](C(=O)N[C@H](CCCNC(=N)N)C(=O)N[C@@H](C(=O)N[C@@H](C(=O)N[C@H](CCCNC(=N)N)C(N)=O)[C@H](C)CC)C(C)C)C(C)C [DJK5, vqwrairvrvir-NH2] (H-[dV][dQ][dW][dR][dA][dI][dR][dV][dR][dV][dI][dR]-NH2)",No appreciable aggregation,–,0.8,2,6,0.8,0.8,3,–,16,7.4,0.8,did not prevent weight loss
